Results published in patent publication US20170129916A1, “NOVEL BETULINIC PROLINE IMIDAZOLE DERIVATIVES AS HIV INHIBITORS” (HETERO RESEARCH FOUNDATION, priority 2014, published 2017).

Assays:
[1] = system: HIV-1 strains, for e.g., 92HT599; experiment: Antiviral activity: p24 estimation in MT-2 cells infected with HIV-1; assay type: cell-based; conditions: Human immunodeficiency virus 1, MT2, MT-2 cells infected with HIV-1, p24, ~96 hours; for IC50: read-out: Antiviral activity IC50 (nM) Efficacy IC50
Summary of the method: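 MT-2 cells infected with HIV-1 (e.g. 92HT599), plated at 30,000 cells/well with compound (DMSO ≤1%) and incubated ~96 h. Supernatant p24 quantified by kit; percent inhibition relative to vehicle controls.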

[2] = Single dose oral pharmacokinetic study; assay type: in vivo; conditions: mouse, mice, 30 mg/kg, plasma; for AUC(0-t): read-out: Mice oral PK @30 mg/kg AUC 0-t; for Cmax: read-out: Mice oral PK @30 mg/kg Cmax
Summary of the method: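 Rats or mice received 30 mg/kg orally at 10 ml/kg dose volume. Retro-orbital blood was taken into K3 EDTA at defined intervals under light ether anesthesia and centrifuged to plasma. Plasma levels were measured by LC-MS-MS.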

For `C=C(C)[C@@H]1CC[C@]2(C(=O)N3CCC[C@H]3c3nnc(-c4ccccc4)[nH]3)CC[C@]3(C)[C@H](CC[C@@H]4[C@@]5(C)CC[C@H](OC(=O)CC(C)(C)C(=O)O)C(C)(C)[C@@H]5CC[C@]43C)[C@@H]12` [Compound 48, 2,2-dimethyl-4-oxo-4-(((1R,3aS,5aR,5bR,7aR,9S,11aR,11bR,13aR,13bR)-5a,5b,8,8,11a-pentamethyl-3a-((S)-2-(5-phenyl-4H-1,2,4-triazol-3-yl)pyrrolidine-1-carbonyl)-1-(prop-1-en-2-yl)icosahydro-1H-cyclopenta[a]chrysen-9-yl)oxy)butanoic acid], the IC50 [1] was 5.8 nM, the AUC(0-t) [2] was 299 µg·h/mL and the Cmax [2] was 20800 ng/mL.

Compound `CC1([C@@H]2CC[C@]3(C(=O)N4CCC[C@H]4c4ncc(-c5cccc(F)c5)[nH]4)CC[C@]4(C)[C@H](CC[C@@H]5[C@@]6(C)CC[C@H](OC(=O)[C@H]7C[C@@H](C(=O)O)C7(C)C)C(C)(C)[C@@H]6CC[C@]54C)[C@@H]23)CC1` [Compound 50, (1R,3S)-3-((((1R,3aS,5aR,5bR,7aR,9S,11aR,11bR,13aR,13bR)-3a-((S)-2-(5-(3-fluorophenyl)-1H-imidazol-2-yl)pyrrolidine-1-carbonyl)-5a,5b,8,8,11a-pentamethyl-1-(1-methylcyclopropyl)icosahydro-1H-cyclopenta[a]chrysen-9-yl)oxy)carbonyl)-2,2-dimethylcyclobutane-1-carboxylic acid] has an IC50 [1] of 0.35 nM, an AUC(0-t) [2] of 358 µg·h/mL and a Cmax [2] of 13900 ng/mL.

`CC1([C@@H]2CC[C@]3(C(=O)N4CCC[C@H]4c4ncc(-c5ccccn5)[nH]4)CC[C@]4(C)[C@H](CC[C@@H]5[C@@]6(C)CC[C@H](OC(=O)[C@H]7C[C@@H](C(=O)O)C7(C)C)C(C)(C)[C@@H]6CC[C@]54C)[C@@H]23)CC1` [Compound 51, (1R,3S)-2,2-dimethyl-3-((((1R,3aS,5aR,5bR,7aR,9S,11aR,11bR,13aR,13bR)-5a,5b,8,8,11a-pentamethyl-1-(1-methylcyclopropyl)-3a-((S)-2-(5-(pyridin-2-yl)-1H-imidazol-2-yl)pyrrolidine-1-carbonyl)icosahydro-1H-cyclopenta[a]chrysen-9-yl)oxy)carbonyl)cyclobutane-1-carboxylic acid] gave an IC50 [1] of 43.3 nM, an AUC(0-t) [2] of 160 µg·h/mL and a Cmax [2] of 4930 ng/mL.

In the case of `COCCO[C@@H]1C[C@@H](c2nc(-c3ccc(F)cc3)c[nH]2)N(C(=O)[C@]23CC[C@@H](C4(C)CC4)[C@@H]2[C@H]2CC[C@@H]4[C@@]5(C)CC[C@H](OC(=O)[C@H]6C[C@@H](C(=O)O)C6(C)C)C(C)(C)[C@@H]5CC[C@@]4(C)[C@]2(C)CC3)C1` [Compound 55, (1R,3S)-3-((((1R,3aS,5aR,5bR,7aR,9S,11aR,11bR,13aR,13bR)-3a-((2S,4R)-2-(4-(4-fluorophenyl)-1H-imidazol-2-yl)-4-(2-methoxyethoxy)pyrrolidine-1-carbonyl)-5a,5b,8,8,11a-pentamethyl-1-(1-methylcyclopropyl)icosahydro-1H-cyclopenta[a]chrysen-9-yl)oxy)carbonyl)-2,2-dimethylcyclobutane-1-carboxylic acid], the IC50 [1] is reported as 1.04 nM, the AUC(0-t) [2] is reported as 381 µg·h/mL and the Cmax [2] is reported as 14300 ng/mL.

Work on `CC(C)(C)c1c[nH]c([C@@H]2CCCN2C(=O)[C@]23CC[C@@H](C4(C)CC4)[C@@H]2[C@H]2CC[C@@H]4[C@@]5(C)CC[C@H](OC(=O)[C@H]6C[C@@H](C(=O)O)C6(C)C)C(C)(C)[C@@H]5CC[C@@]4(C)[C@]2(C)CC3)n1` [Compound 56, (1R,3S)-3-((((1R,3aS,5aR,5bR,7aR,9S,11aR,11bR,13aR,13bR)-3a-((S)-2-(4-(tert-butyl)-1H-imidazol-2-yl)pyrrolidine-1-carbonyl)-5a,5b,8,8,11a-pentamethyl-1-(1-methylcyclopropyl)icosahydro-1H-cyclopenta[a]chrysen-9-yl)oxy)carbonyl)-2,2-dimethylcyclobutane-1-carboxylic acid] yielded an IC50 [1] of 56.2 nM, an AUC(0-t) [2] of 375 µg·h/mL and a Cmax [2] of 12000 ng/mL.

For `CC1([C@@H]2CC[C@]3(C(=O)N4CCC(c5ncc(-c6ccccc6)[nH]5)CC4)CC[C@]4(C)[C@H](CC[C@@H]5[C@@]6(C)CC[C@H](OC(=O)[C@H]7C[C@@H](C(=O)O)C7(C)C)C(C)(C)[C@@H]6CC[C@]54C)[C@@H]23)CC1` [Compound 57, (1R,3S)-2,2-dimethyl-3-((((1R,3aS,5aR,5bR,7aR,9S,11aR,11bR,13aR,13bR)-5a,5b,8,8,11a-pentamethyl-1-(1-methylcyclopropyl)-3a-(4-(5-phenyl-1H-imidazol-2-yl)piperidine-1-carbonyl)icosahydro-1H-cyclopenta[a]chrysen-9-yl)oxy)carbonyl)cyclobutane-1-carboxylic acid], the IC50 [1] was 4.42 nM, the AUC(0-t) [2] was 66.4 µg·h/mL and the Cmax [2] was 2790 ng/mL.

Work on `CC1([C@@H]2CC[C@]3(C(=O)N4CCC[C@H]4c4ncc(C(F)(F)F)[nH]4)CC[C@]4(C)[C@H](CC[C@@H]5[C@@]6(C)CC[C@H](OC(=O)[C@H]7C[C@@H](C(=O)O)C7(C)C)C(C)(C)[C@@H]6CC[C@]54C)[C@@H]23)CC1` [Compound 59, (1R,3S)-2,2-dimethyl-3-((((1R,3aS,5aR,5bR,7aR,9S,11aR,11bR,13aR,13bR)-5a,5b,8,8,11a-pentamethyl-1-(1-methylcyclopropyl)-3a-((S)-2-(5-(trifluoromethyl)-1H-imidazol-2-yl)pyrrolidine-1-carbonyl)icosahydro-1H-cyclopenta[a]chrysen-9-yl)oxy)carbonyl)cyclobutane-1-carboxylic acid] yielded an inhibition at 0.1 µM ([1]; 0.1 μM) of 71%, an inhibition at 1 µM ([1]; 1 μM) of 100% and an IC50 [1] of 55.4 nM. The AUC(0-t) [2] was 451 µg·h/mL and the Cmax [2] was 15700 ng/mL.

With `CC(C)(CC(=O)O[C@H]1CC[C@]2(C)[C@H]3CC[C@@H]4[C@H]5[C@H](C6(C)CC6)CC[C@]5(C(=O)N5CCC[C@H]5c5ncc(-c6ccccn6)[nH]5)CC[C@@]4(C)[C@]3(C)CC[C@H]2C1(C)C)C(=O)O` [Compound 62, 2,2-dimethyl-4-oxo-4-(((1R,3aS,5aR,5bR,7aR,9S,11aR,11bR,13aR,13bR)-5a,5b,8,8,11a-pentamethyl-1-(1-methylcyclopropyl)-3a-((S)-2-(5-(pyridin-2-yl)-1H-imidazol-2-yl)pyrrolidine-1-carbonyl)icosahydro-1H-cyclopenta[a]chrysen-9-yl)oxy)butanoic acid] the IC50 [1] was 0.8 nM, the AUC(0-t) [2] was 93.1 µg·h/mL and the Cmax [2] was 7120 ng/mL.

Work on `CC(C)(CC(=O)O)CC(=O)O[C@H]1CC[C@]2(C)[C@H]3CC[C@@H]4[C@H]5[C@H](C6(C)CC6)CC[C@]5(C(=O)N5CCC[C@H]5c5ncc(-c6ccccn6)[nH]5)CC[C@@]4(C)[C@]3(C)CC[C@H]2C1(C)C` [Compound 63, 3,3-dimethyl-5-oxo-5-(((1R,3aS,5aR,5bR,7aR,9S,11aR,11bR,13aR,13bR)-5a,5b,8,8,11a-pentamethyl-1-(1-methylcyclopropyl)-3a-((S)-2-(5-(pyridin-2-yl)-1H-imidazol-2-yl)pyrrolidine-1-carbonyl)icosahydro-1H-cyclopenta[a]chrysen-9-yl)oxy)pentanoic acid] yielded an IC50 [1] of 3.6 nM, an AUC(0-t) [2] of 120 µg·h/mL and a Cmax [2] of 4470 ng/mL.
